Measurements taken from US20260009085A1, “METHODS AND COMPOSITIONS FOR THE DIAGNOSIS AND TREATMENT OF CANCER” (Chengdu Anticancer Bioscience, Ltd., priority 2023, published 2026).

Test system: panel of 98 human cancer cell lines
Test: Concentration-response in panel of 98 human cancer cell lines with MYC/MKLP2 biomarker statistical analysis (AUC, EC50, IC50, Emax, h)
Format: cell-based
Protocol: For passaging of cell lines prior to a […] (MTT) assay, cells were routinely split when reaching mid-log phase and not allowed to progress to confluence. For the determination of cytotoxicity, cells were plated in 96-well plates at 4,000 cells per well in a volume of 100 μL and cultivated for 15 to 24 hours to reach 20-30% confluence. Cells on the plate were then exposed in triplicate to test compounds at concentrations ranging from 0.06 nM to 10 μM by using 3-fold serial dilutions or a concentration range from 5 nM to 10 μM using 2-fold serial dilutions. Cells exposed to vehicle (0.1% DMSO) were used as a negative control. Three days after initiation of the treatment, 20 μL of MTT (stock solution 5 mg/mL) was added to each well before incubation at 37° C. for another 3-4 hours. The medium was then aspirated with a microplate washer (BioTek ELX50) before 50 μL of DMSO was added to each well. After incubation with shaking for 10 minutes, the 96-well plate was analyzed with a microplate reader (BioTek ELX808iu) at a wavelength of 570 nm. The relative cell number was calculated as (A570^Compound/A570^DMSO)×100%. […] Statistical analysis was performed in GraphPad Prism 8.0.2. Error bars were presented as mean±1 standard deviation.
The CellTiter-Glo® (CTG) assay determines levels of ATP, and therefore the metabolic health of cell grown in culture. […] Wells containing medium without cells were used as a baseline control to obtain a value for background luminescence. […] 150 μL of the mixture was transferred to a white 96-well microplate (Falcon, Cat. #353296) and the luminescence signal was recorded by a microplate reader (Tecan Spark).
To develop a comparative metric reflecting the level of MYC and/or MKLP2 in a given cell line, the signal intensity of the MYC and MKLP2 protein bands from immunoblot analysis were normalized to the intensity of the housekeeping protein β-ACTIN. […] Whole cell MYC and MKLP2 proteins were quantified in a panel of 98 human cancer cell lines, see Table 4, below. […]

SMILES: CNC(=O)c1cc(OC)cc(Oc2ncccc2-c2ccnc(C)c2)c1 [LG157]
- association of oncogenic alterations (TP53, RB, PTEN, RAS, BRAF, PI3K) with response (89 of the 98 cell lines): no evidence was found that these alterations were associated with either sensitivity or resistance
- relation of MKLP2 protein level to response (98 cell lines): lower protein levels of MKLP2, but not high, predicted a favorable response
- relation of MYC abundance to sensitivity (98 cell lines): the abundance of MYC in the human cancer cell lines positively relates to sensitivity
